Our source for the IC50 values is patent publication US10233186B2, “Inhibitors of activin receptor-like kinase” (BLUEPRINT MEDICINES CORPORATION, priority 2016, dated 2019).

Experiment [1] addresses T1, ALK2 R206H (GST-tagged mutant ALK2) (Homo sapiens, UniProt Q04771, R206H).
T1 construct: purchased Carna Bioscience or ThermoFisher 09-148 or PV6232
T1 sequence (Q04771 21-509 R206H): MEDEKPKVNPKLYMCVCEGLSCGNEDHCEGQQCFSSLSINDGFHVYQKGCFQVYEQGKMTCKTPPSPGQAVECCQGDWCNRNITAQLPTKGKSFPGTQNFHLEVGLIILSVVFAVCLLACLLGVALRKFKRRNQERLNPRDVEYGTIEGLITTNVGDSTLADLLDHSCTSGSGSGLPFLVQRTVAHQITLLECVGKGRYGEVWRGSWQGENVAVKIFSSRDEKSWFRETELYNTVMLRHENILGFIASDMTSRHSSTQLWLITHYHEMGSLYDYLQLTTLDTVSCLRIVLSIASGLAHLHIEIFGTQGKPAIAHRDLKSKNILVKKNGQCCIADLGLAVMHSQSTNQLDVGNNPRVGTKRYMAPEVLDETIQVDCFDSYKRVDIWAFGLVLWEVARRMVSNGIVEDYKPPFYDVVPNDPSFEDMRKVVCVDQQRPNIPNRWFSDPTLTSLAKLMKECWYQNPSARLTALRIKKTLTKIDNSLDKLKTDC
In words: ALK binding assay (LANTHASCREEN TR-FRET competitive binding, displacement of Kinase Tracer 178). The note with it: ALK2 R206H, LANTHASCREEN TR-FRET competitive binding; read-out: Binding Assay (IC50). (In TR-FRET formats the signal depends on donor and acceptor labels being close together.)

The target of experiment [2] is T2, human ALK2 R206H (Homo sapiens, UniProt Q04771, R206H).
T2 construct: expressed in transfected cells; host or cells: HEK293 (ATCC CRL1573), lentivirus transduction, blasticidin selection
T2 sequence (Q04771 21-509 R206H): T1 sequence (Q04771 21-509 R206H)
Briefly: Cell-based ALK2-R206H cell activity assay (Smad1-Ser463/Ser465 phosphorylation by AlphaLISA in HEK293-ALK2-R206H cells). The note with it: read-out: Cell Line (Cell Assay IC50). Put shortly: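 Stable HEK293 cells expressing C-terminally FLAG-tagged human ALK2 R206H (lentiviral, blasticidin-selected) were treated with compounds in 10-point, 3-fold dilutions from 10 μM or 1 μM top, in duplicate. Smad1 Ser463/Ser465 phosphorylation was read by AlphaLISA.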
Background: In Alpha technology, singlet oxygen from a donor bead excites a nearby acceptor bead.

pIC50: −log10 of the molar value.

`COC1(c2ccc(-c3cc4c(N5CCN(C(=O)C6CC6)CC5)ccnn4c3)cc2F)CCN(C(C)C)CC1` [Compound 680]: the negative-log IC50 (pIC50) – broadly, the negative decadic logarithm of the IC50, by convention in mol/L – in experiment [1] is more than 8.00; in experiment [2], more than 7.00.
On to `COC1(c2ccc(-c3cc4c(N5CCN(C(=O)[C@H]6C[C@@H]6F)CC5)ccnn4c3)cc2)CCN(C(C)C)CC1` [Compound 681], for which the figures for the negative-log IC50 (pIC50) in experiment [1] and in experiment [2] were more than 8.00 and more than 7.00, respectively.
Regarding `COC1(c2ccc(-c3cc4c(N5CCN(C(=O)C6CC6)CC5)ccnn4c3)c(F)c2)CCN(C(C)C)CC1` [Compound 682], the figures for the pIC50 in experiment [1] and in experiment [2] were more than 8.00 and more than 7.00, respectively.
As to `CO[C@]1(c2ccc(-c3cc4c(N5CCN(C(=O)C6CC6)CC5)ccnn4c3)cc2F)CCCN(C(C)C)C1` [Compound 683], the negative-log IC50 (pIC50) is more than 8.00 in experiment [1] and more than 7.00 in experiment [2].
Turning to `CO[C@@]1(c2ccc(-c3cc4c(N5CCN(C(=O)C6CC6)CC5)ccnn4c3)cc2F)CCCN(C(C)C)C1` [Compound 684], the pIC50 in experiment [1] is more than 8.00; in experiment [2] it was more than 7.00.
For `COC1(c2ccc(-c3cc4c(N5CCN(C(=O)OC(C)C)CC5)ccnn4c3)cc2)CCN(C(C)C)CC1` [Compound 685], in that order: more than 8.00 and more than 7.00.
For the molecule `CO[C@@]1(c2ccc(-c3cc4c(N5CCN(C(=O)NC(C)C)CC5)ccnn4c3)nc2)CCCN(C(C)C)C1` [Compound 686], the results for the negative logarithm of the IC50 (pIC50) in experiment [1] and in experiment [2] were more than 8.00 and more than 7.00, respectively.
For `CO[C@]1(c2ccc(-c3cc4c(N5CCN(C(=O)NC(C)C)CC5)ccnn4c3)nc2)CCCN(C(C)C)C1` [Compound 687], in that order: more than 8.00 and more than 7.00.
For `COC1(c2ccc(-c3cc4c(N5CCN(C(=O)NC(C)C)CC5)ccnn4c3)nc2)CCN(C(C)C)CC1` [Compound 688], the results for the negative-log IC50 (pIC50) in experiment [1] and in experiment [2] were more than 8.00 and more than 7.00, respectively.
Consider `COC1(c2cnc(-c3cc4c(N5CCN(C(=O)C6CC6)CC5)ccnn4c3)c(F)c2)CCN(C(C)C)CC1` [Compound 689], for which the pIC50 in experiment [1] was more than 8.00; in experiment [2], 6.30 to 7.00.
As for `CC(C)N1CCC[C@@](F)(c2ccc(-c3cc4c(N5CCN(C(=O)OC6COC6)CC5)ccnn4c3)cc2)C1` [Compound 690], the negative logarithm of the IC50 (pIC50) is more than 8.00 in experiment [1] and more than 7.00 in experiment [2].
On to `CC(C)N1CCC[C@](F)(c2ccc(-c3cc4c(N5CCN(C(=O)OC6COC6)CC5)ccnn4c3)cc2)C1` [Compound 691], for which the values for the pIC50 in experiment [1] and in experiment [2] were more than 8.00 and more than 7.00, respectively.
For the molecule `CC(C)N1CCC[C@@H](c2ccc(-c3cc4c(N5CCN(C(=O)OC6COC6)CC5)ccnn4c3)cc2F)C1` [Compound 692], the negative logarithm of the IC50 (pIC50) in experiment [1] was more than 8.00; in experiment [2] it was more than 7.00.
For `CC(C)N1CCC[C@H](c2ccc(-c3cc4c(N5CCN(C(=O)OC6COC6)CC5)ccnn4c3)cc2F)C1` [Compound 693], in that order: more than 8.00 and more than 7.00.
For `CC(C)N1CCC(c2ccc(-c3cc4c(N5CCN(C(=O)OC6COC6)CC5)ccnn4c3)c(F)c2)CC1` [Compound 694], in that order: more than 8.00 and more than 7.00.
For the molecule `CC(C)N1CCC[C@@](F)(c2ccc(-c3cc4c(N5CCN(C(=O)OC6COC6)CC5)ccnn4c3)nc2)C1` [Compound 695], the negative logarithm of the IC50 (pIC50) in experiment [1] was more than 8.00; in experiment [2], more than 7.00.
As to `CC(C)N1CCC[C@](F)(c2ccc(-c3cc4c(N5CCN(C(=O)OC6COC6)CC5)ccnn4c3)nc2)C1` [Compound 696], the negative logarithm of the IC50 (pIC50) in experiment [1] was more than 8.00; in experiment [2], more than 7.00.
As for `CCNC(=O)N1CCN(c2ccnn3cc(-c4ccc(C5(OC)CCN(C(C)C)CC5)c(F)c4)cc23)CC1` [Compound 697], the negative logarithm of the IC50 (pIC50) was more than 8.00 in experiment [1] and more than 7.00 in experiment [2].
In the case of `CCNC(=O)N1CCN(c2ccnn3cc(-c4ccc([C@@]5(OC)CCCN(C(C)C)C5)c(F)c4)cc23)CC1` [Compound 698], the pIC50 is more than 8.00 in experiment [1] and more than 7.00 in experiment [2].
Consider `CCNC(=O)N1CCN(c2ccnn3cc(-c4ccc([C@]5(OC)CCCN(C(C)C)C5)c(F)c4)cc23)CC1` [Compound 699], for which the pIC50 in experiment [1] is more than 8.00; in experiment [2] it was more than 7.00.
Turning to `CCOC(=O)N1CCN(c2ccnn3cc(-c4ccc(C5(OC)CCN(C(C)C)CC5)cc4F)cc23)CC1` [Compound 701, ethyl 4-(6-(2-fluoro-4-(1-isopropyl-4-methoxypiperidin-4-yl)phenyl)pyrrolo[1,2-b]pyridazin-4-yl)piperazine-1-carboxylate], the figures for the pIC50 in experiment [1] and in experiment [2] were more than 8.00 and more than 7.00, respectively.
For `CC(C)N1CC[C@@H](c2ccc(-c3cc4c(N5CCN(C(=O)[C@H]6CC[C@H](C#N)CC6)CC5)ccnn4c3)nc2)C1` [Compound 702], in that order: more than 8.00 and more than 7.00.
`CC(C)N1CC[C@H](c2ccc(-c3cc4c(N5CCN(C(=O)[C@H]6CC[C@H](C#N)CC6)CC5)ccnn4c3)nc2)C1` [Compound 703]: the pIC50 was more than 8.00 in experiment [1] and more than 7.00 in experiment [2].
On to `CC(C)N1CCC(c2ccc(-c3cc4c(N5CCN(C(=O)OC6CC(C#N)C6)CC5)ccnn4c3)cc2)CC1` (centres unmarked) [Compound 704], for which the negative-log IC50 (pIC50) in experiment [1] is more than 8.00; in experiment [2], more than 7.00.
Regarding `COC1(c2ccc(-c3cc4c(N5CCN(C(=O)[C@H]6C[C@@H]6C#N)CC5)ccnn4c3)cc2)CCN(C(C)C)CC1` [Compound 705], the pIC50 in experiment [1] is more than 8.00; in experiment [2] it was more than 7.00.
As to `CC(C)N1CC(O)(c2ccc(-c3cc4c(N5CCN(C(=O)C6CCC(C#N)CC6)CC5)ccnn4c3)cc2)C1` (centres unmarked) [Compound 706], the pIC50 was more than 8.00 in experiment [1] and more than 7.00 in experiment [2].
Turning to `CC(C)N1CCC(c2ccc(-c3cc4c(N5CCN(C(=O)NCC(F)(F)F)CC5)ccnn4c3)cc2)CC1` [Compound 708], the pIC50 was more than 8.00 in experiment [1] and more than 7.00 in experiment [2].
On to `CC(C)N1CCC(c2ccc(-c3cc4c(N5CCN(C(=O)OC6CCOCC6)CC5)ccnn4c3)cc2)CC1` [Compound 709], for which the pIC50 in experiment [1] is more than 8.00; in experiment [2], 6.30 to 7.00.
As to `COCC(C)N1CCC(OC)(c2ccc(-c3cc4c(N5CCN(C(=O)C6CC6)CC5)ccnn4c3)nc2)CC1` (centres unmarked) [Compound 710], the negative-log IC50 (pIC50) in experiment [1] is more than 8.00; in experiment [2], more than 7.00.
For `COC[C@H](C)N1CCC(OC)(c2ccc(-c3cc4c(N5CCN(C(=O)C6CC6)CC5)ccnn4c3)nc2)CC1` [Compound 711], in that order: more than 8.00 and more than 7.00.
`CCOC1(c2ccc(-c3cc4c(N5CCN(C(=O)NC(C)C)CC5)ccnn4c3)cc2)CCN(C(C)C)CC1` [Compound 712]: the figures for the negative logarithm of the IC50 (pIC50) in experiment [1] and in experiment [2] were more than 8.00 and more than 7.00, respectively.
For `COC1(c2ccc(-c3cc4c(N5CCN(C(=O)OC6COC6)CC5)ccnn4c3)cc2)CCN(C(C)C)CC1` [Compound 713], in that order: more than 8.00 and more than 7.00.
Take `COC1(c2ccc(-c3cc4c(N5CCN(C(=O)NC(C)C)CC5)ccnn4c3)nc2)CCN(C2COC2)CC1` [Compound 714]: the negative-log IC50 (pIC50) in experiment [1] is more than 8.00; in experiment [2], more than 7.00.
Regarding `CCOC1(c2ccc(-c3cc4c(N5CCN(C(=O)NC(C)C)CC5)ccnn4c3)nc2)CCN(C(C)C)CC1` [Compound 715], the negative logarithm of the IC50 (pIC50) in experiment [1] was more than 8.00; in experiment [2] it was more than 7.00.
`CCO[C@@]1(c2ccc(-c3cc4c(N5CCN(C(=O)NC(C)C)CC5)ccnn4c3)nc2)CCCN(C(C)C)C1` [Compound 716]: the negative-log IC50 (pIC50) is more than 8.00 in experiment [1] and more than 7.00 in experiment [2].
On to `CO[C@@]1(c2ccc(-c3cc4c(N5CCN(C(=O)OC6COC6)CC5)ccnn4c3)nc2)CCCN(C(C)C)C1` [Compound 718], for which the pIC50 in experiment [1] is more than 8.00; in experiment [2], more than 7.00.
Take `COC1(c2ccc(-c3cc4c(N5CCN(C(=O)NC(C)C)CC5)ccnn4c3)cc2F)CCN(C(C)C)CC1` [Compound 720]: the pIC50 was more than 8.00 in experiment [1] and more than 7.00 in experiment [2].
For the molecule `COC1(c2ccc(-c3cc4c(N5CCN(C(=O)NC(C)C)CC5)ccnn4c3)c(F)c2)CCN(C(C)C)CC1` [Compound 721], the values for the pIC50 in experiment [1] and in experiment [2] were more than 8.00 and more than 7.00, respectively.
Turning to `COC1(c2ccc(-c3cc4c(N5CCN(C(=O)NC(C)C)CC5)ccnn4c3)cc2F)CCCN(C(C)C)C1` (centres unmarked) [Compound 722], the negative logarithm of the IC50 (pIC50) was more than 8.00 in experiment [1] and more than 7.00 in experiment [2].
Consider `CO[C@]1(c2ccc(-c3cc4c(N5CCN(C(=O)NC(C)C)CC5)ccnn4c3)cc2F)CCCN(C(C)C)C1` [Compound 723], for which the pIC50 is more than 8.00 in experiment [1] and more than 7.00 in experiment [2].
For the molecule `CO[C@@]1(c2ccc(-c3cc4c(N5CCN(C(=O)NC(C)C)CC5)ccnn4c3)cc2F)CCCN(C(C)C)C1` [Compound 724], the pIC50 is more than 8.00 in experiment [1] and more than 7.00 in experiment [2].
With `COC1(c2cnc(-c3cc4c(N5CCN(C(=O)NC(C)C)CC5)ccnn4c3)c(F)c2)CCN(C(C)C)CC1` [Compound 725], the pIC50 in experiment [1] was more than 8.00; in experiment [2], more than 7.00.
As to `CC(C)N1CCC(c2ccc(-c3cc4c(N5CCN(C(=O)OC6COC6)CC5)ccnn4c3)c(Cl)c2)CC1` [Compound 726], the negative-log IC50 (pIC50) in experiment [1] is more than 8.00; in experiment [2], 6.30 to 7.00.
